Reference: the supplement of paper PMC8882468

Key:
Assay in all cases: CTG-3D luminescence at 96 h relative to day-0 seeding control (ratio to day 0); higher = more growth / less cytotoxicity; PDxO 3D drug screen, 96 h, CTG-3D normalised to day-0 seeding control.
HCI-010 = tested on: HCI-010 (organoid from a breast cancer xenograft)
HCI-011.E2 = tested on: HCI-011.E2 (organoid from an ER-positive breast cancer xenograft)
MDA-MB-231 = tested on: MDA-MB-231
HCI-012 = tested on: HCI-012 (organoid from a breast cancer xenograft)
HCI-027 = tested on: HCI-027 (organoid from a triple-negative breast cancer xenograft)
HCI-001 = tested on: HCI-001 (organoid from a triple-negative breast cancer xenograft)

O=C(/C=C/c1cccnc1)NCCCCC1CCN(C(=O)c2ccccc2)CC1 [FK866]
CTG-3D luminescence at 96 h
Settings	12.5 pM	0.00025 µM	0.005 µM	0.1 µM	1 µM	10 µM	100 µM	625 fM
HCI-001, days in culture: 240	1.51	1.26	0.813	0.167	0.113	0.0983	0.134	1.79
HCI-001, days in culture: 260	2.05	0.894	0.497	0.126	0.107	0.113	0.125	1.44
HCI-001, days in culture: 269	1.52	1.61	1.1	0.0874	0.0522	0.0578	0.0645	1.6
HCI-001, days in culture: 327	1.45	0.495	0.617	0.125	0.0812	0.0548	0.0869	1.78
HCI-001, days in culture: 346	1.25	1.28	0.416	0.063	0.0715	0.0541	0.128	1.08
HCI-001, days in culture: 364	1.18	1.03	0.913	0.0658	0.0511	0.0476	0.0948	1.5
HCI-010, days in culture: 52	2.32	2.72	1.25	0.204	0.17	0.139	0.119	2.36
HCI-010, days in culture: 65	1.59	1.73	0.682	0.29	0.227	0.202	0.166	1.66
HCI-010, days in culture: 103	3.4	3.45	2.07	0.97	0.904	0.705	0.347	3.29
HCI-011.E2, days in culture: 74	2.62	2.62	2.29	1.99	2.77	2.79	2.06	2.32
HCI-012, days in culture: 143	1.77	2.17	0.328	0.0872	0.0769	0.0863	0.175	1.84
HCI-012, days in culture: 162	2.18	2.1	0.129	0.0723	0.0448	0.085	0.127	2.72
HCI-012, days in culture: 201	2.67	0.11	0.33	0.0389	0.128	0.0435	0.115	1.67
HCI-027, days in culture: 176	1.98	1.8	0.365	0.104	0.104	0.0553	0.082	2.22
HCI-027, days in culture: 194	1.77	1.47	0.26	0.049	0.0511	0.0527	0.0718	1.63
HCI-027, days in culture: 201	1.55	1.66	0.166	0.0645	0.0296	0.0561	0.0649	1.74

CTG-3D luminescence at 96 h
Settings	12.5 pM	0.00025 µM	0.005 µM	0.1 µM	1 µM	10 µM	100 µM	625 fM
HCI-011.E2	1.74	1.7	1.37	1.62	1.48	1.75	1.55	1.87
MDA-MB-231	4.37	4.45	3.77	0.298	0.237	0.236	0.146	4.49

CCc1c2c(nc3ccc(O)cc13)-c1cc3c(c(=O)n1C2)COC(=O)[C@]3(O)CC [SN-38]
CTG-3D luminescence at 96 h
Settings	12.5 pM	0.00025 µM	0.005 µM	0.1 µM	1 µM	10 µM	100 µM	625 fM
HCI-001, days in culture: 240	1.51	0.771	0.767	0.396	0.155	0.0446	0.0627	1.46
HCI-001, days in culture: 260	2.58	1	1.24	0.603	0.195	0.0569	0.027	1.29
HCI-001, days in culture: 269	1.53	1.63	1.32	0.477	0.161	0.0511	0.0406	1.73
HCI-001, days in culture: 327	1.72	1.61	1.83	0.602	0.127	0.0312	0.0351	2.1
HCI-001, days in culture: 346	1.26	1.2	0.977	0.483	0.105	0.0311	0.0287	1.11
HCI-001, days in culture: 364	1.37	0.978	1.19	0.283	0.0835	0.0303	0.0177	1.76
HCI-010, days in culture: 52	2.37	2.36	0.389	0.0916	0.0768	0.267	0.243	2.19
HCI-010, days in culture: 65	1.69	1.69	0.379	0.115	0.0812	0.317	0.334	0.54
HCI-010, days in culture: 103	3.57	3.27	0.516	0.116	0.145	0.599	0.576	2.96
HCI-011.E2, days in culture: 74	2.34	1.84	2.09	1.85	1.06	0.399	0.23	2.21
HCI-012, days in culture: 143	1.85	2.16	0.415	0.0623	0.0329	0.0255	0.0169	1.9
HCI-012, days in culture: 162	2.38	1.99	0.295	0.0642	0.0329	0.0269	0.0164	2.73
HCI-012, days in culture: 201	2.31	1.99	0.824	0.0348	0.0248	0.0127	0.014	1.61
HCI-027, days in culture: 176	1.94	1.79	1.19	0.371	0.104	0.0345	0.0407	1.74
HCI-027, days in culture: 194	1.81	1.39	0.614	0.307	0.0805	0.0428	0.0357	1.66
HCI-027, days in culture: 201	2.6	2.5	0.717	0.272	0.0912	0.0373	0.029	2.46

CTG-3D luminescence at 96 h
Settings	12.5 pM	0.00025 µM	0.005 µM	0.1 µM	1 µM	10 µM	100 µM	625 fM
HCI-011.E2	1.25	1.54	1.4	1.48	0.834	0.362	0.218	1.46
MDA-MB-231	4.45	4.3	3.73	2.38	1.55	0.665	0.568	4.4

CCN1CCN(Cc2ccc(Nc3ncc(F)c(-c4cc(F)c5nc(C)n(C(C)C)c5c4)n3)nc2)CC1 [abemaciclib]
CTG-3D luminescence at 96 h
Settings	12.5 pM	0.00025 µM	0.005 µM	0.1 µM	1 µM	10 µM	100 µM	625 fM
HCI-001, days in culture: 240	1.34	0.584	0.704	0.897	1.37	0.799	0.012	1.47
HCI-001, days in culture: 260	2.51	1.22	1.6	1.75	1.37	1.23	0.00996	2.02
HCI-001, days in culture: 269	1.53	1.73	1.69	1.38	1.17	0.68	0.0115	1.67
HCI-001, days in culture: 327	1.46	1.41	1.87	1.58	1.36	1.12	0.0169	1.75
HCI-001, days in culture: 346	1.39	1.37	1.18	1.14	1.17	1.35	0.0179	1.19
HCI-001, days in culture: 364	1.39	1.1	1.38	0.914	0.909	1.22	0.0124	1.72
HCI-010, days in culture: 52	1.92	2.34	2.3	2.47	1.99	0.77	0.0133	2.09
HCI-010, days in culture: 65	1.68	1.83	2.02	1.78	1.2	0.0257	0.00729	1.65
HCI-010, days in culture: 103	3.48	3.18	3.28	3.44	3.5	2.6	0.0301	2.98
HCI-011.E2, days in culture: 74	1.84	2.83	2.59	2.7	2.61	1.72	0.00196	2.79
HCI-012, days in culture: 143	2.22	2.41	2.02	2.72	1.59	0.427	0.0151	1.94
HCI-012, days in culture: 162	2.88	2.54	2.02	3.34	1.83	1.5	0.0215	3.16
HCI-012, days in culture: 201	2.81	2.22	1.75	1.73	2.31	1.47	0.0218	1.65
HCI-027, days in culture: 176	2.08	1.51	2.54	2.32	1.53	0.242	0.0171	1.82
HCI-027, days in culture: 194	1.66	1.49	1.8	1.97	1.87	1.39	0.0205	1.89
HCI-027, days in culture: 201	2.8	2.7	2.69	2.54	2.15	1.35	0.018	2.37

CTG-3D luminescence at 96 h
Settings	12.5 pM	0.00025 µM	0.005 µM	0.1 µM	1 µM	10 µM	100 µM	625 fM
HCI-011.E2	1.49	1.5	1.57	1.9	1.52	1.04	0.00535	1.6
MDA-MB-231	4.61	4.47	4.69	4.48	4.55	3.73	0.0487	4.67

C=CCn1c(=O)c2cnc(Nc3ccc(N4CCN(C)CC4)cc3)nc2n1-c1cccc(C(C)(C)O)n1 [adavosertib]
CTG-3D luminescence at 96 h
Settings	12.5 pM	0.00025 µM	0.005 µM	0.1 µM	1 µM	10 µM	100 µM	625 fM
HCI-001, days in culture: 240	1.67	0.913	1.22	0.745	0.618	0.244	0.152	1.51
HCI-001, days in culture: 260	1.62	1.31	2.32	1.44	1.04	0.27	0.15	1.14
HCI-001, days in culture: 269	1.43	1.7	1.59	1.8	0.496	0.254	0.087	1.65
HCI-001, days in culture: 327	1.54	1.49	1.68	1.68	1.18	0.193	0.182	1.68
HCI-001, days in culture: 346	1.44	1.34	1.22	1.52	1.48	0.163	0.121	1.33
HCI-001, days in culture: 364	1.41	1.15	1.37	1.17	0.983	0.13	0.0626	1.6
HCI-010, days in culture: 52	2.37	2.26	2.59	1.87	1	0.21	0.0806	2.17
HCI-010, days in culture: 65	1.57	1.67	1.73	1.64	0.816	0.276	0.126	1.61
HCI-010, days in culture: 103	3.65	3.76	3.59	2.95	1.62	0.459	0.242	3.13
HCI-011.E2, days in culture: 74	1.66	2.29	2.11	2.08	2.2	2.35	1.38	2.46
HCI-012, days in culture: 143	1.94	1.86	2.1	2.56	2.11	0.226	0.0167	2.06
HCI-012, days in culture: 162	2.21	2.27	2.02	3.54	2.56	0.304	0.0282	3.03
HCI-012, days in culture: 201	2.67	2.07	1.6	1.66	2.25	0.091	0.0326	1.71
HCI-027, days in culture: 176	1.72	1.45	2.67	1.21	0.185	0.0765	0.0542	2.5
HCI-027, days in culture: 194	1.64	1.52	1.33	1.65	0.158	0.0827	0.0536	1.42
HCI-027, days in culture: 201	1.68	1.69	2.08	2.23	0.149	0.0964	0.0691	1.7

CTG-3D luminescence at 96 h
Settings	12.5 pM	0.00025 µM	0.005 µM	0.1 µM	1 µM	10 µM	100 µM	625 fM
HCI-011.E2	1.73	1.67	1.49	1.89	1.41	1.73	1.51	1.62
MDA-MB-231	4.36	4.34	4.48	4.31	3.06	1.05	1.27	4.41
